From the supplement of paper PMC10307832

How the values were obtained:
Assay in all cases: relative viability (nuclei count vs DMSO), 5 days (fraction); higher = more cells survive
Linifanib + Pemetrexed = compound: Cc1ccc(F)c(NC(=O)Nc2ccc(-c3cccc4[nH]nc(N)c34)cc2)c1 [Linifanib] + Nc1nc2[nH]cc(CCc3ccc(C(=O)N[C@@H](CCC(=O)O)C(=O)O)cc3)c2c(=O)[nH]1 [Pemetrexed] (partner 0.2 µM)
In short: (§1)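 Nuclei were stained with Hoechst during a one-step fixation (final 0.05% Triton X-100, 1% formaldehyde, 1 ug/ml Hoechst) carried out 5 days after dosing, then counted on 4× images. The cells, lung cancer lines in 1536-well plates, had been dosed by pin tool the day after seeding with one drug alone or a fixed anchor-drug dose plus five library-drug doses (not always all listed) in √10 steps. Relative viability is the nuclei count in treated wells divided by that in vehicle wells, and each value is the median of duplicate plates.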

Linifanib + Crizotinib = compound: Cc1ccc(F)c(NC(=O)Nc2ccc(-c3cccc4[nH]nc(N)c34)cc2)c1 [Linifanib] + C[C@@H](Oc1cc(-c2cnn(C3CCNCC3)c2)cnc1N)c1c(Cl)ccc(F)c1Cl [Crizotinib] (partner 1 µM)
In short: as §1

Linifanib + AZD7762 = compound: Cc1ccc(F)c(NC(=O)Nc2ccc(-c3cccc4[nH]nc(N)c34)cc2)c1 [Linifanib] + NC(=O)Nc1cc(-c2cccc(F)c2)sc1C(=O)N[C@H]1CCCNC1 [AZD7762] (partner 0.2 µM)
In short: as §1

Linifanib + Navitoclax = compound: Cc1ccc(F)c(NC(=O)Nc2ccc(-c3cccc4[nH]nc(N)c34)cc2)c1 [Linifanib] + CC1(C)CCC(c2ccc(Cl)cc2)=C(CN2CCN(c3ccc(C(=O)NS(=O)(=O)c4ccc(N[C@H](CCN5CCOCC5)CSc5ccccc5)c(S(=O)(=O)C(F)(F)F)c4)cc3)CC2)C1 [Navitoclax] (partner 0.5 µM)
In short: as §1

Linifanib + Luminespib = compound: Cc1ccc(F)c(NC(=O)Nc2ccc(-c3cccc4[nH]nc(N)c34)cc2)c1 [Linifanib] + CCNC(=O)c1noc(-c2cc(C(C)C)c(O)cc2O)c1-c1ccc(CN2CCOCC2)cc1 [Luminespib] (partner 0.01 µM)
In short: as §1

Linifanib + Vorinostat = compound: Cc1ccc(F)c(NC(=O)Nc2ccc(-c3cccc4[nH]nc(N)c34)cc2)c1 [Linifanib] + O=C(CCCCCCC(=O)Nc1ccccc1)NO [Vorinostat] (partner 1 µM)
In short: as §1

Cell Line | relative viability (Linifanib + Pemetrexed; first compound 0.03162 µM) | relative viability (Linifanib + Pemetrexed; first compound 0.1 µM) | relative viability (Linifanib + Pemetrexed; first compound 0.3162 µM) | relative viability (Linifanib + Crizotinib; first compound 0.03162 µM) | relative viability (Linifanib + Crizotinib; first compound 0.1 µM) | relative viability (Linifanib + Crizotinib; first compound 0.3162 µM) | relative viability (Linifanib + AZD7762; first compound 0.03162 µM) | relative viability (Linifanib + AZD7762; first compound 0.1 µM) | relative viability (Linifanib + AZD7762; first compound 0.3162 µM) | relative viability (Linifanib + Navitoclax; first compound 0.03162 µM) | relative viability (Linifanib + Navitoclax; first compound 0.1 µM) | relative viability (Linifanib + Navitoclax; first compound 0.3162 µM) | relative viability (Linifanib + Luminespib; first compound 0.03162 µM) | relative viability (Linifanib + Luminespib; first compound 0.1 µM) | relative viability (Linifanib + Luminespib; first compound 0.3162 µM) | relative viability (Linifanib + Vorinostat; first compound 0.03162 µM) | relative viability (Linifanib + Vorinostat; first compound 0.1 µM) | relative viability (Linifanib + Vorinostat; first compound 0.3162 µM)
CAL-12T | 1.2 | 1.27 | 1.18 | 0.835 | 0.692 | 0.698 | 0.623 | 0.661 | 0.588 | 1.18 | 1.21 | 1.04 | 0.438 | 0.751 | 0.364 | 0.884 | 0.986 | 0.724
NCI-H647 | 0.148 | 0.153 | 0.203 | 0.963 | 1.12 | 0.857 | 0.435 | 0.557 | 0.389 | 1.23 | 1.03 | 1.01 | 0.149 | 0.325 | 0.114 | 0.638 | 0.672 | 0.516
HOP-62 | 0.312 | 0.261 | 0.295 | 0.924 | 1.04 | 0.968 | 0.569 | 0.586 | 0.4 | 1 | 1.07 | 0.859 | 0.927 | 0.964 | 0.866 | 0.803 | 0.643 | 0.604
NCI-H441 | 0.274 | 0.291 | 0.222 | 0.715 | 0.855 | 0.713 | 1.03 | 1.23 | 0.958 | 0.705 | 0.637 | 0.591 | 0.371 | 0.297 | 0.252 | 0.626 | 0.81 | 0.658
LXF-289 | 0.97 | 0.906 | 0.853 | 0.887 | 0.855 | 0.742 | 1.11 | 1.15 | 0.934 | 0.936 | 0.953 | 0.883 | 0.766 | 0.866 | 0.674 | 0.85 | 0.762 | 0.807
NCI-H1734 | 0.401 | 0.447 | 0.45 | 0.768 | 0.834 | 0.735 | 0.564 | 0.591 | 0.538 | 0.851 | 0.808 | 0.789 | 0.223 | 0.216 | 0.174 | 0.815 | 0.849 | 0.83
NCI-H838 | 0.225 | 0.27 | 0.244 | 0.847 | 0.839 | 0.841 | 0.907 | 0.952 | 0.953 | 1.19 | 1.15 | 1.16 | 0.373 | 0.285 | 0.267 | 0.724 | 0.711 | 0.686
NCI-H2405 | 1.06 | 1.11 | 1.04 | 0.855 | 0.86 | 0.85 | 0.71 | 0.777 | 0.803 | 0.889 | 0.88 | 0.754 | 0.626 | 0.933 | 0.741 | 0.988 | 1.05 | 0.951
NCI-H1355 | 1.07 | 1.13 | 1.08 | 1.04 | 1.02 | 1.14 | 0.648 | 0.765 | 0.792 | 0.891 | 0.953 | 0.963 | 0.777 | 0.672 | 0.648 | 0.647 | 0.68 | 0.682
NCI-H1993 | 0.642 | 0.627 | 0.637 | 1.01 | 0.932 | 0.867 | 0.974 | 0.894 | 0.831 | 0.806 | 1.01 | 0.971 | 0.864 | 0.933 | 1.03 | 1.08 | 0.958 | 0.825
NCI-H1755 | 0.457 | 0.465 | 0.474 | 0.888 | 0.957 | 0.841 | 0.457 | 0.505 | 0.495 | 0.931 | 1.06 | 0.949 | 0.586 | 0.599 | 0.447 | 0.761 | 0.765 | 0.892
ChaGo-K-1 | 0.255 | 0.262 | 0.238 | 1.13 | 1.14 | 1.08 | 0.881 | 0.881 | 0.925 | 0.991 | 1.17 | 0.978 | 0.636 | 0.777 | 0.563 | 0.767 | 0.807 | 0.775
NCI-H2347 | 0.434 | 0.431 | 0.425 | 0.727 | 0.7 | 0.812 | 0.822 | 0.803 | 0.653 | 0.826 | 1.01 | 0.733 | 0.479 | 0.408 | 0.348 | 0.73 | 0.773 | 0.665
NCI-H322M | 0.598 | 0.589 | 0.65 | 0.954 | 0.982 | 0.828 | 0.594 | 0.581 | 0.552 | 1.25 | 1.14 | 1.17 | 0.88 | 0.863 | 0.882 | 0.848 | 0.914 | 0.876
LCLC-97TM1 | 0.202 | 0.16 | 0.146 | 0.43 | 0.456 | 0.362 | 0.262 | 0.229 | 0.29 | 0.436 | 0.417 | 0.321 | 0.721 | 0.766 | 0.595 | 0.739 | 0.807 | 0.603
HCC-15 | 0.239 | 0.229 | 0.232 | 0.855 | 0.86 | 0.779 | 0.922 | 1.18 | 1.12 | 0.651 | 0.776 | 0.682 | 0.387 | 0.278 | 0.3 | 0.796 | 0.838 | 0.792
PC-14 | 0.145 | 0.137 | 0.129 | 0.919 | 1 | 0.793 | 0.377 | 0.491 | 0.262 | 0.975 | 0.91 | 0.947 | 0.201 | 0.197 | 0.147 | 0.784 | 0.83 | 0.768
